Measured values from patent publication US20220064195A1, “SYNTHETIC I2 IMIDAZOLINE RECEPTOR LIGANDS FOR PREVENTION OR TREATMENT OF HUMAN BRAIN DISORDERS” (Universitat de Barcelona, priority 2018, published 2022).
Entries after “also recorded” stand apart in the source; their conditions may differ.

Tests used:
[1] = predictive penetration in the CNS from PAMPA-BBB Pe
Procedure: (§1) To evaluate the brain penetration of the different compounds, a parallel artificial membrane permeation assay for blood-brain barrier was used, following the method described by Di et al. (cf. Table 2). The in vitro permeability (Pe) of fourteen commercial drugs through lipid extract of porcine brain membrane together with the test compounds were determined. Commercial drugs and assayed compounds were tested using a mixture of PBS:EtOH (70:30).

[2] = in vitro; settings: pig, PAMPA
Procedure: as §1

[3] = system: SAMP8 mice; experiment: Novel Object Recognition Test (NORT) in SAMP8 mice
Procedure: (§2) Mice were placed in a 90°, two-arm, 25-cm-long, 20-cm-high, 5-cm-wide black maze. The walls could be lifted off for easy cleaning. Light intensity in the middle of the field was 30 lux. The objects to be discriminated were made of plastic and were chosen not to frighten the mice, and objects with parts that could be bitten were avoided. Before performing the test, the mice were individually habituated to the apparatus for 10 min during 3 days. On day 4, the animals were submitted to a 10-min acquisition trial (first trial), during which they were placed in the maze in the presence of two identical, novel objects (A+A or B+B) at the end of each arm. A 10-min retention trial (second trial) was carried out 2 h later. During this second trial, objects A and B were placed in the maze and the behavior of the mice was recorded with a camera. Time that the mice explored the new object (TN) and Time that the mice explored the Old object (TO) were measured. A Discrimination Index (DI) was defined as (TN−TO)/(TN+TO). In order to avoid object preference biases, A and B were counterbalanced so that one half of the animals in each experimental group were exposed first to A and then to B, whereas the remaining half saw B first and then A. The maze and the objects were cleaned with 70° ethanol after each test in order to eliminate olfactory cues.

[4] = system: 5XFAD mice; experiment: Novel Object Recognition Test (NORT) in 5XFAD mice
Procedure: as §2

[5] = system: II-6; experiment: Gene expression of inflammatory marker II-6 by real-time PCR in SAMP8 mice
Procedure: (§3) Total RNA isolation was carried out by means of Trizol reagent following manufacturer's instructions. […] Samples were also tested in an Agilent 2100B Bioanalyzer (Agilent Technologies) to determine the RNA integrity number. Reverse Transcription-Polymerase Chain Reaction (RT-PCR) was performed as follows: 2 μg of messenger RNA (mRNA) was reverse-transcribed using the High Capacity complementary DNA (cDNA) Reverse Transcription Kit (Applied Biosystems). Normalization of expression levels was performed with actin. SYBER Green, real-time PCR was performed in the Step One Plus Detection System (Applied Biosystems) employing the SYBR Green PCR Master Mix. Each reaction mixture contained 7.5 μL of cDNA, whose concentration was 2 μg, 0.75 μL of each primer (whose concentration was 100 nM), and 7.5 μL of SYBR Green PCR Master Mix (2×). Data were analyzed utilizing the comparative Cycle threshold (Ct) method (Fold Change), where the actin transcript level was used to normalize differences in sample loading and preparation. Each sample (n=4-5) was analyzed in triplicate, and results represented the n-fold difference of transcript levels among different samples.

[6] = system: II-6; experiment: Gene expression of inflammatory marker II-6 by real-time PCR in 5XFAD mice; settings: 5×FAD
Procedure: as §3

[7] = system: Cxcl10; experiment: Gene expression of inflammatory marker Cxcl10 by real-time PCR in SAMP8 mice
Procedure: as §3

[8] = system: Cxcl10; experiment: Gene expression of inflammatory marker Cxcl10 by real-time PCR in 5XFAD mice; settings: 5×FAD
Procedure: as §3

## CCOP(=O)(OCC)[C@]1(c2ccccc2)N=C[C@H]2C(=O)N(c3ccc(F)c(Cl)c3)C(=O)[C@H]21 (racemic) [Compound I-06, Diethyl (1RS,3aSR,6aSR)-5-(3-chloro-4-fluorophenyl)-4,6-dioxo-1-phenyl-1,3a,4,5,6,6a-hexahydropyrrolo[3,4-c]pyrrole-1-phosphonate]
[1]
  CNS Prediction: CNS+ (compounds of high BBB permeation (CNS+): Pe (10^−6 cm s^−1)>5,179)
[2]
  Papp: 9.7 ± 0.7 ×10⁻⁶ cm/s
[3]; SAMP8 mice, treated group compared to the control
  cognitive / memory effect in NORT (in words): reduced memory deficits; also recorded: improves cognitive abilities
[3]; female SAMP8 mice at 12 months, 5 mg/kg, retention 2 h, mean ± SEM
  DI (−1, 1) NORT 2 h: 0.33 ± 0.071
[3]; female SAMP8 mice at 12 months, 5 mg/kg, retention 24 h
  DI (−1, 1) NORT 24 h: 0.273 ± 0.042
[4]; 5XFAD mice, treated group compared to the control
  cognitive / memory effect in NORT (in words): recovered DI levels of the Wild Type (Wt) control group; also recorded: improves cognitive abilities
[4]; female 5XFAD mice at 6 months, 5 mg/kg, retention 2 h
  DI (−1, 1) NORT 2 h: 0.199 ± 0.053
[4]; female 5XFAD mice at 6 months, 5 mg/kg, retention 24 h
  DI (−1, 1) NORT 24 h: 0.229 ± 0.051
[5]
  II-6 marker of neuroinflammation, gene expression in brain (in words): reduced
[6]
  II-6 marker of neuroinflammation, gene expression in brain (in words): reduced
[7]
  Cxcl10 marker of neuroinflammation, gene expression in brain (in words): reduced
[8]
  Cxcl10 marker of neuroinflammation, gene expression in brain (in words): reduced
